Data published in the NIST ThermoML archive (doi:10.1021/je400783h).
± gives the expanded uncertainty stated by the source.

Settings: for mass density / vapor or sublimation pressure / viscosity / speed of sound: Liquid; for vapor or sublimation pressure: Ebulliometric method (Recirculating still); for surface tension liquid-gas: Drop volume; for viscosity: Capillary tube (Ostwald / Ubbelohde) method; for speed of sound: Pulse-echo method

Cc1ccc(C=O)o1 [5-methylfurfural] showed a mass density (313.15 K, 7500 kPa) of 1093.64 ± 0.62 kg/m3, a mass density (313.15 K, 10000 kPa) of 1095.27 ± 0.66 kg/m3 and a mass density (313.15 K, 20000 kPa) of 1101.5 ± 0.84 kg/m3. For the same compound, the mass density (313.15 K, 30000 kPa) was 1107.37 ± 1 kg/m3, the mass density (313.15 K, 40000 kPa) was 1112.86 ± 1.2 kg/m3 and the mass density (313.15 K, 50000 kPa) was 1118.1 ± 1.5 kg/m3. The mass density (313.15 K, 60000 kPa) was 1123.12 ± 1.7 kg/m3, the “vapor or sublimation pressure” value (313.15 K) was 0.2 ± 0.1 kPa and the surface tension liquid-gas (315.65 K) was 38.44 ± 0.27 mN/m. It also gave a viscosity (315.65 K, 101.33 kPa) of 1.402 ± 0.03 mPa·s, a speed of sound (315.65 K, 101.33 kPa) of 1383.3 ± 1.2 m/s and a mass density (315.65 K, 101.33 kPa, Vibrating tube method) of 1085.82 ± 0.31 kg/m3. For the same compound, the surface tension liquid-gas (318.15 K) was 38.13 ± 0.27 mN/m, the mass density (318.15 K, 100 kPa) was 1083.33 ± 0.49 kg/m3 and the viscosity (318.15 K, 101.33 kPa) was 1.345 ± 0.029 mPa·s. It also gave a speed of sound (318.15 K, 101.33 kPa) of 1374.3 ± 1.2 m/s, a mass density (318.15 K, 101.33 kPa, Vibrating tube method) of 1083.33 ± 0.31 kg/m3 and a mass density (318.15 K, 2500 kPa) of 1085.42 ± 0.53 kg/m3. It also gave a mass density (318.15 K, 5000 kPa) of 1087.05 ± 0.56 kg/m3, a mass density (318.15 K, 7500 kPa) of 1088.71 ± 0.6 kg/m3 and a mass density (318.15 K, 10000 kPa) of 1090.41 ± 0.64 kg/m3. It also gave a mass density (318.15 K, 20000 kPa) of 1096.72 ± 0.81 kg/m3, a mass density (318.15 K, 30000 kPa) of 1102.74 ± 1 kg/m3 and a mass density (318.15 K, 40000 kPa) of 1108.39 ± 1.2 kg/m3. The mass density (318.15 K, 50000 kPa) was 1113.73 ± 1.4 kg/m3, the mass density (318.15 K, 60000 kPa) was 1118.89 ± 1.7 kg/m3 and the “vapor or sublimation pressure” value (318.15 K) was 0.3 ± 0.1 kPa. For the same compound, the surface tension liquid-gas (320.65 K) was 37.78 ± 0.27 mN/m, the viscosity (320.65 K, 101.33 kPa) was 1.292 ± 0.028 mPa·s and the speed of sound (320.65 K, 101.33 kPa) was 1365.3 ± 1.2 m/s. For the same compound, the mass density (320.65 K, 101.33 kPa, Vibrating tube method) was 1080.83 ± 0.31 kg/m3, the surface tension liquid-gas (323.15 K) was 37.51 ± 0.27 mN/m and the mass density (323.15 K, 100 kPa) was 1078.33 ± 0.48 kg/m3. It also gave a viscosity (323.15 K, 101.33 kPa) of 1.241 ± 0.026 mPa·s, a speed of sound (323.15 K, 101.33 kPa) of 1356.1 ± 1.2 m/s and a mass density (323.15 K, 101.33 kPa, Vibrating tube method) of 1078.33 ± 0.31 kg/m3. The mass density (323.15 K, 2500 kPa) was 1080.39 ± 0.52 kg/m3, the mass density (323.15 K, 5000 kPa) was 1082.17 ± 0.55 kg/m3 and the mass density (323.15 K, 7500 kPa) was 1083.95 ± 0.59 kg/m3. The mass density (323.15 K, 10000 kPa) was 1085.56 ± 0.63 kg/m3, the mass density (323.15 K, 20000 kPa) was 1092.07 ± 0.79 kg/m3 and the mass density (323.15 K, 30000 kPa) was 1098.22 ± 0.97 kg/m3. The mass density (323.15 K, 40000 kPa) was 1104.01 ± 1.2 kg/m3, the mass density (323.15 K, 50000 kPa) was 1109.47 ± 1.4 kg/m3 and the mass density (323.15 K, 60000 kPa) was 1114.68 ± 1.6 kg/m3. The “vapor or sublimation pressure” value (323.15 K) was 0.4 ± 0.1 kPa, the surface tension liquid-gas (325.65 K) was 37.26 ± 0.27 mN/m and the viscosity (325.65 K, 101.33 kPa) was 1.202 ± 0.026 mPa·s. The speed of sound (325.65 K, 101.33 kPa) was 1347.3 ± 1.2 m/s, the mass density (325.65 K, 101.33 kPa, Vibrating tube method) was 1075.83 ± 0.31 kg/m3 and the surface tension liquid-gas (328.15 K) was 36.91 ± 0.27 mN/m. It also gave a mass density (328.15 K, 100 kPa) of 1073.32 ± 0.48 kg/m3, a viscosity (328.15 K, 101.33 kPa) of 1.151 ± 0.025 mPa·s and a speed of sound (328.15 K, 101.33 kPa) of 1338.4 ± 1.2 m/s. It also gave a mass density (328.15 K, 101.33 kPa, Vibrating tube method) of 1073.32 ± 0.3 kg/m3, a mass density (328.15 K, 2500 kPa) of 1075.43 ± 0.51 kg/m3 and a mass density (328.15 K, 5000 kPa) of 1077.24 ± 0.54 kg/m3. The mass density (328.15 K, 7500 kPa) was 1079.03 ± 0.57 kg/m3, the mass density (328.15 K, 10000 kPa) was 1080.7 ± 0.61 kg/m3 and the mass density (328.15 K, 20000 kPa) was 1087.38 ± 0.77 kg/m3. For the same compound, the mass density (328.15 K, 30000 kPa) was 1093.64 ± 0.94 kg/m3, the mass density (328.15 K, 40000 kPa) was 1099.55 ± 1.1 kg/m3 and the mass density (328.15 K, 50000 kPa) was 1105.14 ± 1.3 kg/m3. The mass density (328.15 K, 60000 kPa) was 1110.48 ± 1.6 kg/m3, the “vapor or sublimation pressure” value (328.15 K) was 0.54 ± 0.1 kPa and the surface tension liquid-gas (330.65 K) was 36.54 ± 0.26 mN/m. For the same compound, the viscosity (330.65 K, 101.33 kPa) was 1.11 ± 0.024 mPa·s, the speed of sound (330.65 K, 101.33 kPa) was 1329.5 ± 1.2 m/s and the mass density (330.65 K, 101.33 kPa, Vibrating tube method) was 1070.81 ± 0.3 kg/m3. The surface tension liquid-gas (333.15 K) was 36.21 ± 0.26 mN/m, the mass density (333.15 K, 100 kPa) was 1068.3 ± 0.46 kg/m3 and the viscosity (333.15 K, 101.33 kPa) was 1.072 ± 0.023 mPa·s. For the same compound, the speed of sound (333.15 K, 101.33 kPa) was 1320.5 ± 1.2 m/s, the mass density (333.15 K, 101.33 kPa, Vibrating tube method) was 1068.3 ± 0.3 kg/m3 and the mass density (333.15 K, 2500 kPa) was 1070.05 ± 0.49 kg/m3. The mass density (333.15 K, 5000 kPa) was 1072.29 ± 0.53 kg/m3, the mass density (333.15 K, 7500 kPa) was 1074.1 ± 0.56 kg/m3 and the mass density (333.15 K, 10000 kPa) was 1075.84 ± 0.59 kg/m3. It also gave a mass density (333.15 K, 20000 kPa) of 1082.66 ± 0.74 kg/m3, a mass density (333.15 K, 30000 kPa) of 1089.1 ± 0.91 kg/m3 and a mass density (333.15 K, 40000 kPa) of 1095.12 ± 1.1 kg/m3. The mass density (333.15 K, 50000 kPa) was 1100.86 ± 1.3 kg/m3, the mass density (333.15 K, 60000 kPa) was 1106.23 ± 1.5 kg/m3 and the “vapor or sublimation pressure” value (333.15 K) was 0.74 ± 0.1 kPa. It also gave a surface tension liquid-gas (335.65 K) of 35.92 ± 0.26 mN/m, a viscosity (335.65 K, 101.33 kPa) of 1.039 ± 0.022 mPa·s and a speed of sound (335.65 K, 101.33 kPa) of 1311.6 ± 1.2 m/s. It also gave a mass density (335.65 K, 101.33 kPa, Vibrating tube method) of 1065.78 ± 0.3 kg/m3, a surface tension liquid-gas (338.15 K) of 35.57 ± 0.26 mN/m and a mass density (338.15 K, 100 kPa) of 1063.25 ± 0.46 kg/m3. The viscosity (338.15 K, 101.33 kPa) was 1.002 ± 0.021 mPa·s, the speed of sound (338.15 K, 101.33 kPa) was 1302.8 ± 1.2 m/s and the mass density (338.15 K, 101.33 kPa, Vibrating tube method) was 1063.25 ± 0.3 kg/m3. The mass density (338.15 K, 2500 kPa) was 1065.43 ± 0.48 kg/m3, the mass density (338.15 K, 5000 kPa) was 1067.33 ± 0.51 kg/m3 and the mass density (338.15 K, 7500 kPa) was 1069.06 ± 0.54 kg/m3. The mass density (338.15 K, 10000 kPa) was 1070.99 ± 0.58 kg/m3, the mass density (338.15 K, 20000 kPa) was 1077.96 ± 0.72 kg/m3 and the mass density (338.15 K, 30000 kPa) was 1084.52 ± 0.88 kg/m3. For the same compound, the mass density (338.15 K, 40000 kPa) was 1090.69 ± 1.1 kg/m3, the mass density (338.15 K, 50000 kPa) was 1096.51 ± 1.3 kg/m3 and the mass density (338.15 K, 60000 kPa) was 1102.02 ± 1.5 kg/m3. The “vapor or sublimation pressure” value (338.15 K) was 0.97 ± 0.1 kPa, the “vapor or sublimation pressure” value (343.15 K) was 1.3 ± 0.1 kPa and the “vapor or sublimation pressure” value (348.15 K) was 1.66 ± 0.1 kPa. The “vapor or sublimation pressure” value (353.15 K) was 2.17 ± 0.1 kPa, the “vapor or sublimation pressure” value (358.15 K) was 2.76 ± 0.1 kPa and the “vapor or sublimation pressure” value (363.15 K) was 3.52 ± 0.1 kPa. The “vapor or sublimation pressure” value (368.15 K) was 4.4 ± 0.1 kPa, the “vapor or sublimation pressure” value (373.15 K) was 5.52 ± 0.1 kPa and the “vapor or sublimation pressure” value (378.15 K) was 6.79 ± 0.1 kPa. The “vapor or sublimation pressure” value (383.15 K) was 8.43 ± 0.1 kPa, the “vapor or sublimation pressure” value (388.15 K) was 10.2 ± 0.1 kPa and the “vapor or sublimation pressure” value (393.15 K) was 12.31 ± 0.1 kPa. The “vapor or sublimation pressure” value (398.15 K) was 15 ± 0.1 kPa, the “vapor or sublimation pressure” value (403.15 K) was 18 ± 0.1 kPa and the “vapor or sublimation pressure” value (408.15 K) was 21.27 ± 0.1 kPa. The “vapor or sublimation pressure” value (413.15 K) was 25.33 ± 0.11 kPa, the “vapor or sublimation pressure” value (418.15 K) was 30.01 ± 0.11 kPa and the “vapor or sublimation pressure” value (423.15 K) was 34.95 ± 0.11 kPa. For the same compound, the “vapor or sublimation pressure” value (428.15 K) was 40.57 ± 0.11 kPa, the “vapor or sublimation pressure” value (433.15 K) was 47.43 ± 0.12 kPa and the “vapor or sublimation pressure” value (438.15 K) was 55.14 ± 0.12 kPa. The “vapor or sublimation pressure” value (443.15 K) was 63.39 ± 0.12 kPa, the “vapor or sublimation pressure” value (448.15 K) was 72.37 ± 0.13 kPa and the “vapor or sublimation pressure” value (453.15 K) was 83.4 ± 0.14 kPa.
